Structures can show the parent of a compound that is named as a salt.

The assay deals with T1, human C1s protein (Homo sapiens, UniProt P09871).
T1 construct: purchased R&D Systems or Complement Technologies 2060-SE or A104
T1 sequence (P09871 16-688): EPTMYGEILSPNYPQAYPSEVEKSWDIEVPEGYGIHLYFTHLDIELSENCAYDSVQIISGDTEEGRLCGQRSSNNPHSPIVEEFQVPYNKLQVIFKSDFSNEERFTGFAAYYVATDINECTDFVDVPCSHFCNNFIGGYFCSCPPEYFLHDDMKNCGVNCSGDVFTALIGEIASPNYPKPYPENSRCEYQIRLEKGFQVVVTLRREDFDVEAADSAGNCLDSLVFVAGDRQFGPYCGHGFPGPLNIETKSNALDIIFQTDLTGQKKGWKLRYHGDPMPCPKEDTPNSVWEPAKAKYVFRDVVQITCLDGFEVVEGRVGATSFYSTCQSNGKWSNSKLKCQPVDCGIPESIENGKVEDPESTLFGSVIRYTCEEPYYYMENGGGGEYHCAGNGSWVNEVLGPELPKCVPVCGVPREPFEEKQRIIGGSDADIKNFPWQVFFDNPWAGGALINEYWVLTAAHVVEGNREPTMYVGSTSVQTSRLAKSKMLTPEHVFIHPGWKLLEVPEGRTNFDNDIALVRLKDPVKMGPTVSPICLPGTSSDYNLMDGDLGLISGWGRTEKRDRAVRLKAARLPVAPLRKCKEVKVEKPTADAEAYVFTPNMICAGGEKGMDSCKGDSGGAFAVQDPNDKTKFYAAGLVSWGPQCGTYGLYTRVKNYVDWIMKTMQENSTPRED
Description: recombinant C1s enzymatic assay (YLGR-Rh110-dPro substrate hydrolysis, fluorescence). The note with it: recombinant human C1s 2.5 nM, substrate YLGR-Rh110-dPro 20 μM, 15 min pre-incubation, 60 min RT; read-out: rec. hC11s pIC50 (converted). The class given is biochemical. The protocol:
Compound testing in the purified or recombinant C1s enzymatic assay C1s is a serine protease; its enzymatic activity is measured in vitro by the hydrolysis of the synthetic substrate YLGR-Rh110-dPro (Kerr F K, O'Brien G, Quinsey N S, Whisstock J C, Boyd S, de la Banda M G, Kaiserman D, Matthews A Y, Bird P I, Pike R N. Elucidation of the substrate specificity of the Cis protease of the classical complement pathway. J. Biol. Chem. (2005) 280, 39510-39514). The enzyme cleaves the substrate with the release of Rh110 which is highly fluorescent. Cis inhibitors prevent the hydrolysis of the substrate thus resulting in a decrease of the signal.
The recombinant C1s enzymatic assay is performed using the human C1s protein (R&D Systems, 2060-SE or Complement Technologies, A104). The assay buffer composition is: 50 mM HEPES pH 7.5 (Sigma, H3375), 150 mM NaCl (Sigma, S7653), 0.2% PEG 8000 (VWR, AA43443-22), 0.01% Pluronic F127 (Sigma, P2243). On the day of the experiment 0.1 mg/mL BSA (Sigma, B4287) is added fresh to the buffer. The test item stock solutions are serially diluted 1:3 or 1:4 or 1:5 with DMSO, 11-point curves, in a 384-well compound plate. Nafamostat concentration curve is always included in the assay plate as a reference control.
The assay plate is prepared by dispensing 0.25 μL from compound plate into a 384-well black assay plate (assay plate, Greiner Fluotrac 200, 781076, VWR 736-0140). The high controls are prepared dispensing in 0.25 μL DMSO in column 23, rows AH or AP and low controls with 0.25 μL of 0.1 μM Nafamostat. Cis solution is prepared as 2× of the 2.5 nM final assay concentration. The YLGR-Rh110-dPro substrate is prepared as 2× of the final assay concentration of 20 μM. 5 μL/well of 2× enzyme solution is dispensed and pre-incubated for 15 min with the compounds. The enzymatic reaction is the started with 5 μL/well of the 2× substrate solution. The plate is incubated for 60 min RT in the dark and fluorescence is measured (ex 485/em 535 nm) using an Envision (PerkinElmer) or an equivalent instrument.
Turning to `Cc1nc(-c2ccc(B(O)O)cc2-c2ccc3c(N)cnnc3c2)ns1` [Example 18, [3-(4-aminocinnolin-7-yl)-4-(5-methyl-1,2,4-thiadiazol-3-yl)phenyl]boronic acid], the IC50 is 1.62 nM. As for `COc1cc(-n2cccn2)c(-c2ccc3c(N)nnc(C)c3c2)cc1B(O)O` [Example 47, [5-(1-amino-4-methyl-phthalazin-6-yl)-2-methoxy-4-pyrazol-1-yl-phenyl]boronic acid], the IC50 is 1.7 nM.

As for `Nc1cnnc2cc(-c3cc4c(cc3-c3ncco3)OCCOB4O)ccc12` [Example 74, 7-(1-hydroxy-7-oxazol-2-yl-3,4-dihydro-2,5,1-benzodioxaborepin-8-yl)cinnolin-4-amine], the IC50 was 1.12 nM.

Take `COc1cc(-n2cc(C(F)F)cn2)c(-c2ccc3c(N)cnnc3c2)cc1B(O)O` [Example 29, [5-(4-aminocinnolin-7-yl)-4-[4-(difluoromethyl)-1H-pyrazol-1-yl]-2-methoxyphenyl]boronic acid formic acid salt]: the IC50 was 0.977 nM.

Turning to `COc1cc(-c2ncns2)c(-c2ccc3c(N)cnnc3c2)cc1B(O)O` [Example 91, [5-(4-aminocinnolin-7-yl)-2-methoxy-4-(1,2,4-thiadiazol-5-yl)phenyl]boronic acid formic acid salt], the IC50 is 0.468 nM.

`COc1cc(-n2cc(C(F)(F)F)cn2)c(-c2ccc3c(N)cnnc3c2)cc1B(O)O` [Example 81, 5-(4-aminocinnolin-7-yl)-2-methoxy-4-[4-(trifluoromethyl)pyrazol-1-yl]phenyl]boronic acid formic acid salt]: the IC50 is 1.17 nM.

With `Nc1cnnc2cc(-c3cc(B(O)O)ccc3-c3cc(C(F)(F)F)[nH]n3)ccc12` [Example 19, [3-(4-aminocinnolin-7-yl)-4-[5-(trifluoromethyl)-1H-pyrazol-3-yl]phenyl]boronic acid], the IC50 is 34.7 nM.

Consider `COc1cc(-n2cc(OC(F)F)cn2)c(-c2ccc3c(N)cnnc3c2)cc1B(O)O` [Example 84, [5-(4-aminocinnolin-7-yl)-4-[4-(difluoromethoxy)pyrazol-1-yl]-2-methoxy-phenyl]boronic acid formic acid salt], for which the IC50 was 0.741 nM. On to `Nc1cnnc2cc(-c3cc(B(O)O)ccc3-n3cccn3)ccc12` [Example 1, [3-(4-aminocinnolin-7-yl)-4-(1H-pyrazol-1-yl)phenyl]boronic acid], for which the IC50 was 3.24 nM.

For `COc1cc(-n2cccn2)c(-c2ccc3c(N)cnnc3c2)cc1B(O)O` [Example 23, [5-(4-aminocinnolin-7-yl)-2-methoxy-4-(1H-pyrazol-1-yl)phenyl]boronic acid], the IC50 was 1.07 nM. The value for `Nc1cnnc2cc(-c3cc(B(O)O)c(OC4CC(F)(F)C4)cc3-n3cccn3)ccc12` [Example 34, [5-(4-aminocinnolin-7-yl)-2-(3,3-difluorocyclobutoxy)-4-(1H-pyrazol-1-yl)phenyl]boronic acid formic acid salt] was 11.5 nM. Regarding `CC1COc2cc(-n3cccn3)c(-c3ccc4c(N)cnnc4c3)cc2B(O)O1` (single isomer, unassigned; enantiomer 1) [Example 72, 7-(1-hydroxy-3-methyl-7-pyrazol-1-yl-3,4-dihydro-2,5,1-benzodioxaborepin-8-yl)cinnolin-4-amine enantiomer 1], the IC50 was 1.7 nM. In the case of `Nc1cnnc2cc(-c3cc(B(O)O)c(Oc4ccccc4)cc3-n3cccn3)ccc12` [Example 64, [5-(4-aminocinnolin-7-yl)-2-phenoxy-4-pyrazol-1-yl-phenyl]boronic acid formic acid salt], the IC50 is 12.3 nM. On to `COc1cc(-c2ncc(C(F)(F)F)s2)c(-c2ccc3c(N)cnnc3c2)cc1B(O)O` [Example 83, [5-(4-aminocinnolin-7-yl)-2-methoxy-4-[5-(trifluoromethyl)thiazol-2-yl]phenyl]boronic acid], for which the IC50 was 1.23 nM. The value for `COc1cc(-c2nccs2)c(-c2ccc3c(N)cnnc3c2)cc1B(O)O` [Example 38, [5-(4-aminocinnolin-7-yl)-2-methoxy-4-thiazol-2-yl-phenyl]boronic acid formic acid salt] was 1.02 nM. With `Cc1cc(-c2cc[nH]n2)c(-c2ccc3c(N)cnnc3c2)cc1B(O)O` [Example 41, [5-(4-aminocinnolin-7-yl)-2-methyl-4-(1H-pyrazol-3-yl)phenyl]boronic acid], the IC50 was 24.5 nM.

For the molecule `Nc1cnnc2cc(-c3cc(B(O)O)ccc3-n3cc(C(F)F)cn3)ccc12` [Example 9, [3-(4-aminocinnolin-7-yl)-4-[4-(difluoromethyl)-1H-pyrazol-1-yl]phenyl]boronic acid], the IC50 was 1.74 nM. As to `COc1cc(-n2cc(N3CCOCC3)cn2)c(-c2ccc3c(N)cnnc3c2)cc1B(O)O` [Example 58, [5-(4-aminocinnolin-7-yl)-2-methoxy-4-(4-morpholinopyrazol-1-yl)phenyl]boronic acid formic acid salt], the IC50 is 2 nM. The value for `Nc1cnnc2cc(-c3cc(B(O)O)c(OC4CC4)cc3-n3cccn3)ccc12` [Example 89, [5-(4-aminocinnolin-7-yl)-2-(cyclopropoxy)-4-pyrazol-1-yl-phenyl]boronic acid formic acid salt] was 0.759 nM; that for `Nc1cnnc2cc(-c3cc(B(O)O)cnc3-n3cccn3)ccc12` [Example 13, [5-(4-aminocinnolin-7-yl)-6-(1H-pyrazol-1-yl)pyridin-3-yl]boronic acid] was 4.47 nM. Turning to `COc1cc(-c2nc[nH]n2)c(-c2ccc3c(N)cnnc3c2)cc1B(O)O` [Example 31, [5-(4-aminocinnolin-7-yl)-2-methoxy-4-(1H-1,2,4-triazol-3-yl)phenyl]boronic acid], the IC50 was 1.05 nM.

For the molecule `COc1cc(-c2c[nH]cn2)c(-c2ccc3c(N)cnnc3c2)cc1B(O)O` [Example 45, [5-(4-aminocinnolin-7-yl)-4-(1H-imidazol-4-yl)-2-methoxyphenyl]boronic acid], the IC50 was 5.5 nM. Turning to `Nc1cnnc2cc(-c3cc(B(O)O)ccc3-n3ccnc3)ccc12` [Example 3, [3-(4-aminocinnolin-7-yl)-4-(1H-imidazol-1-yl)phenyl]boronic acid], the IC50 is 66.1 nM. The value for `COc1cc(-n2nccn2)c(-c2ccc3c(N)cnnc3c2)cc1B(O)O` [Example 33, [5-(4-aminocinnolin-7-yl)-2-methoxy-4-(2H-1,2,3-triazol-2-yl)phenyl]boronic acid] was 1.07 nM; that for `COc1cc(-c2ncc(C)o2)c(-c2ccc3c(N)cnnc3c2)cc1B(O)O` [Example 88, [5-(4-aminocinnolin-7-yl)-2-methoxy-4-(5-methyloxazol-2-yl)phenyl]boronic acid formic acid salt] was 0.724 nM. As to `Nc1cnnc2cc(-c3cc(B(O)O)ccc3-c3cc[nH]n3)ccc12` [Example 7, [3-(4-aminocinnolin-7-yl)-4-(1H-pyrazol-3-yl)phenyl]boronic acid], the IC50 was 2.63 nM.

As for `COC(=O)c1cn(-c2ccc(B(O)O)cc2-c2ccc3c(N)cnnc3c2)cn1` [Example 4, [3-(4-aminocinnolin-7-yl)-4-[4-(methoxycarbonyl)-1H-imidazol-1-yl]phenyl]boronic acid], the IC50 was 38.9 nM. For `CC(C)Oc1cc(-n2cccn2)c(-c2ccc3c(N)cnnc3c2)cc1B(O)O` [Example 39, [5-(4-aminocinnolin-7-yl)-2-propan-2-yloxy-4-pyrazol-1-ylphenyl]boronic acid formic acid salt], the IC50 is 2.69 nM.

Values taken from patent US20260159533A1, “INHIBITORS OF COMPLEMENT FACTORS AND USES THEREOF” (Annexon, Inc., priority 2022, published 2026).
